Experimental data reported in patent US7860552B2, “CNS assay for prediction of therapeutic efficacy for neuropathic pain and other functional illnesses” (The McLean Hospital Corporation, priority 2004, dated 2010).

How the values were obtained:
[1] = test system: neuropathic pain; conditions: known efficacy in human neuropathic pain; cited from earlier work
[2] = test system: rats; assay: fMRI of CNS activation in rats following heat stimulus; assay type: in vivo, rat; conditions: compared to placebo group, FIG. 6, FIG. 7
Protocol: The methods of the invention may employ non-human mammals, e.g., rats, as the subjects, in which experimental therapeutic interventions are evaluated. […] The left panels show serial coronal slices through the brain. The overall level of activation was decreased in the gabapentin group compared to the placebo group. The right panels show differences in activation in specific circuitry known to be involved in pain processing that was affected in somatosensory regions (SI), emotional regions (nucleus accumbens—NAc), autonomic regions (hypothalamus), and endogenous analgesic regions (periaqueductal gray).

[3] = test system: healthy subjects; assay: fMRI of CNS activation in healthy subjects after a thermal stimulus (>44° C.); assay type: in vivo, human; conditions: compared with the placebo response, FIG. 2
Protocol: The methods of the invention generally involve the administration of a therapeutic intervention, e.g., a compound, to a subject, e.g., a mammal such as a human, non-human primate, or a rodent (e.g., a rat or mouse). In one embodiment, an acute painful stimulus, e.g., a thermal stimulus, is then administered to the subject. An appropriate time delay may be used in order to achieve appropriate therapeutic effect in the blood and/or CNS prior to administration of the stimulus. Levels of activation of the central nervous system (CNS) of the subject are then measured, typically by a neuroimaging technique such as fMRI. When a therapeutic intervention is being evaluated for efficacy against the functional illness, the levels of activity are examined to determine whether the intervention alters activity in the CNS (FIG. 1). The levels of activity may be determined with reference to one or more specific regions of the CNS, such as those associated, either directly or indirectly with the functional illness, or a general level of activity for the entire CNS, or portion thereof, may be determined without reference to specific anatomical or functional regions. Any alteration in the level of activity may be determined relative to a control, such as levels of activity in a subject treated with placebo or a therapeutic intervention with known efficacy against the functional illness. The method is advantageous in that the subject need not be suffering from the functional illness in order to determine the efficacy of a therapeutic intervention for the illness. […]
The present invention typically employs an imaging technique for measuring the level of activation of the CNS, e.g., by determining blood flow in the CNS. […] In addition, the imaging methods may also be employed to determine a general level of activation for the CNS, e.g., measured as the total number of activated voxels., without regard to the specific regions involved. […]

Structure (SMILES) | Efficacy in neuropathic pain [1] | Overall level of CNS activation (fMRI) [2] | fMRI signal change (CNS activation) following the heat stimulus [3]
O=C1CN=C(c2ccccc2Cl)c2cc([N+](=O)[O-])ccc2N1 [clonazepam] | no efficacy |  | 
NCC1(CC(=O)O)CCCCC1 [gabapentin] | efficacy | decreased | decreasing signal change
CN(C)CCCN1c2ccccc2CCc2ccccc21 [imipramine] | efficacy |  | decreasing signal change
O=C(c1ccccc1)c1ccc2n1CCC2C(=O)O (stereo not shown) [ketorolac] | no efficacy |  | 
CS(=O)(=O)c1ccc(C2=C(c3ccccc3)C(=O)OC2)cc1 [rofecoxib] | no efficacy |  | 
CC1(C)O[C@@H]2[C@@H](CO[C@@]3(COS(N)(=O)=O)OC(C)(C)O[C@@H]23)O1 [topiramate] | efficacy |  | decreasing signal change
